pKd: −log10 of the molar value. Ends that are not written are not given here.
Assays:
CtpB = test: Degradation of in vitro translated 4FAproc constructs with distinct C termini by CtpB; format: biochemical, Bacillus subtilis; details: autoradiography
Experimental: 4FAproc with alternative C-termini was produced using the promega TNT Quick Coupled Transcription/Translation System, following manufactures instructions. Briefly, 40 μl of TNT Master Mix were added to 0.5 μg of template plasmid DNA and 20 μCi of ^35S-methionine (Perkinelmer). The coupled transcription-translation reaction was carried out upon incubation at 30°C for 2 hr. Relative product amounts were normalized based on ^35S-autoradiography following SDS-PAGE analysis.
To measure the proteolytic activities of the SpoIV signaling proteases, recombinant, purified proteases (CtpB, 4B or both, 3 μM) were mixed with respective 4FA model substrates (15 μM) and incubated for various times at 25°C. Reactions were stopped by adding SDS loading buffer. Subsequently, samples were incubated for 5 min at 95°C and analyzed by SDS-PAGE and Coomassie staining. […] Reaction aliquots were stopped and analyzed as described. To compare the cleavage efficiency of various CtpB mutants, the amount of 4FAproc substrate was quantified by analyzing the stained gels using the software ImageJ ([Schneider et al., 2012]). […] Reactions were analyzed by SDS–PAGE and immunoblotting using anti-GFP antibodies ([Rudner and Losick, 2002]). […] The cleavage assays were carried out as described and analyzed by SDS-PAGE and ^35S-autoradiography using Amercham Hyperfilm™ MP films.

[1] = target: T1, isolated PDZ domain of CtpB (Bacillus subtilis, UniProt O35002); test: Isothermal titration calorimetry, isolated PDZ domain; format: binding
T1 construct: His tag; made in house; host or cells: E. coli BL21(DE3)pLysS
Excerpt: (§1) Figure S4 Peptide-Binding Properties of the PDZ Domain, Related to Figure 4 (A) The C termini of B. subtilis proteins predicted to reside in the intermembrane space were synthesized on a cellulose membrane according to the method of inverted peptides. Spotted membranes were probed with either the PDZ domain of CtpB (left) or the ΔPDZ mutant (right). (B) Identified strong binding peptides were further analyzed by systematically substituting residues critical for binding to the PDZ domain of CtpB. (C) ITC analysis testing the interaction of the indicated peptides with the isolated PDZ domain and full-length CtpB (S309A). Raw data (top) and binding isotherm derived from the integrated heat (bottom) are shown. The determined KD dissociation constants are indicated below the binding curves. […] The final model is overlaid with the omit 2Fo-Fc electron density (1.9 Å resolution, contoured at 1.2 σ) calculated without peptide ligand and Arg168.
(§2) Thermodynamic values characterizing the interaction between CtpB and peptide ligands were determined by ITC (MCS-ITC; Microcal). […]
(§3) The interaction between CtpB (wild-type; mutant forms or isolated PDZ domain) and peptide ligands was characterized by ITC measurements (MCS-ITC; Microcal). […] Resulting data were analyzed with the MicroCal ORIGIN software, following the instructions of the manufacturer. […]

full-length CtpB (S309A) = target: T2, full-length CtpB (S309A) (Bacillus subtilis, UniProt O35002, S309A); test: Isothermal titration calorimetry, full-length CtpB (S309A); format: binding
T2 construct: the isolated PDZ domain and full-length CtpB (S309A); His tag; made in house; host or cells: E. coli BL21(DE3)pLysS
Excerpt: as §1, §2, §3

CtpB R168A = target: T3, CtpB R168A (Bacillus subtilis, UniProt O35002, R168A); test: Isothermal titration calorimetry, full-length CtpB R168A; format: binding
T3 construct: with the full-length CtpB variants R168A, R168F and V118Y; His tag; made in house; host or cells: E. coli BL21(DE3)pLysS
Experimental: (§4) Figure S5 Peptide Binding to the PDZ Domain Stabilizes the Active Protease State of CtpB, Related to Figure 5 (A) The interfaces of the PDZ domain with the other domains of CtpB were analyzed to evaluate the prevailing conformation of CtpB in solution. The ribbon representations of CtpBi (left) and CtpBa1 (right) emphasize the PDZ domain that is shown in yellow. Interactions stabilizing the respective domain interfaces (summarized in top panel) are highlighted in orange and the residues forming hydrogen-bonds are listed. […] (B) ITC analysis characterizing the interaction of a peptide having an Ala-Tyr-Ala C terminus with the full-length CtpB variants R168A, R168F and V118Y. Raw data (top) and binding isotherm derived from the integrated heat (bottom) are shown. The determined KD dissociation constants are indicated below the binding curves. (C) Left: a ribbon model of the CtpB V118Y mutant structure, which was crystallized in the same resting conformation as CtpBi. […]
as §2, §3

CtpB R168F = target: T4, CtpB R168F (Bacillus subtilis, UniProt O35002, R168F); test: Isothermal titration calorimetry, full-length CtpB R168F; format: binding
T4 construct: with the full-length CtpB variants R168A, R168F and V118Y; His tag; made in house; host or cells: E. coli BL21(DE3)pLysS
Experimental: as §4, §2, §3

CtpB S309A mutant = test: Cocrystallization of CtpB S309A with peptide; format: binding, Bacillus subtilis; details: S309A/VPA complex, 1.9 Å, 20 mg/ml CtpB incubated with 1 mM peptide for 1 hr at 19°C
Experimental: CtpB crystals were grown at 19°C by the sitting-drop vapor-diffusion method using a 2:1 mixture of protein (20 mg/ml) and reservoir solution. […] Finally, diffraction data of CtpBi/VPA was collected at Deutsches Elektronen-Synchrotron (DESY, beamline P14) using a Pilatus detector (Dectris). Integration and scaling of diffraction data were performed with the programs DENZO, and [sequence]
For all other structures, phases were determined by molecular replacement using the program PHASER ([McCoy et al., 2007]) and the structure of CtpBa1 as search model. In all cases, energy restrained refinement was performed with the programs CNS ([Brünger et al., 1998]) and PHENIX ([Adams et al., 2010]), utilizing bulk solvent and anisotropic B-factor corrections depending on the development of the Rfree index. Refinement was performed in multiple cycles, interrupted for manual model re-building with the program O ([Jones et al., 1991]). Final models were verified with the program MolProbity ([Chen et al., 2010]) and crystal contacts analyzed using the PISA algorithm implemented on the Protein Data Bank Europe website ([Krissinel and Henrick, 2007]).

PDZ domain of CtpB = test: Peptide spot assay; format: binding, Bacillus subtilis; details: inverted peptide array on cellulose membrane; CtpB variants 10 μg/ml, overnight 4°C; anti-polyHis chemiluminescence
Experimental: Peptide spot libraries were generated by synthesizing the 11 C-terminal residues of 1,849 B. subtilis proteins predicted to reside in the intermembrane space onto a cellulose membrane. Membranes were blocked for 4 hr with blocking buffer (blocking reagent, Sigma-Genosys) and subsequently incubated with CtpB. Bound protein was identified using specific antibodies. Further libraries were generated, where identified peptide sequences were systematically permutated.
Peptide spot libraries were generated by synthesizing the 11 C-terminal residues of 1849 B. subtilis proteins known to reside in the intermembrane space. Peptide libraries were generated by a MultiPep SPOTrobot (INTAVIS Bioanalytical Instruments AG) using an optimized method for generating inverted peptides ([Boisguerin et al., 2007], [Volkmer, 2009]). […] Bound CtpB was detected using a mouse anti-polyHis antibody (Sigma, 1:3,000 in blocking buffer, 2 hr at RT) followed by horseradish-peroxidase conjugated anti-mouse antibody (Calbiochem, 1:2,000 in blocking buffer, 1 hr at RT). […] The signal intensities with background-subtraction were recorded as […] with a LumiImager (Boehringer) and analyzed using the LumiAnalyst software. Secondary libraries for subtitutional analyses were generated by systematically permutating identified peptides and analyzed by the described peptide spot methodology.

T1 sequence (O35002 92-182): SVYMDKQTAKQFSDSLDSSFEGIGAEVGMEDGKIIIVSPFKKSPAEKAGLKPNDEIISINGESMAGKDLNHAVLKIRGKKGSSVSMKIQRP
T3 sequence (O35002 24-480 R168A): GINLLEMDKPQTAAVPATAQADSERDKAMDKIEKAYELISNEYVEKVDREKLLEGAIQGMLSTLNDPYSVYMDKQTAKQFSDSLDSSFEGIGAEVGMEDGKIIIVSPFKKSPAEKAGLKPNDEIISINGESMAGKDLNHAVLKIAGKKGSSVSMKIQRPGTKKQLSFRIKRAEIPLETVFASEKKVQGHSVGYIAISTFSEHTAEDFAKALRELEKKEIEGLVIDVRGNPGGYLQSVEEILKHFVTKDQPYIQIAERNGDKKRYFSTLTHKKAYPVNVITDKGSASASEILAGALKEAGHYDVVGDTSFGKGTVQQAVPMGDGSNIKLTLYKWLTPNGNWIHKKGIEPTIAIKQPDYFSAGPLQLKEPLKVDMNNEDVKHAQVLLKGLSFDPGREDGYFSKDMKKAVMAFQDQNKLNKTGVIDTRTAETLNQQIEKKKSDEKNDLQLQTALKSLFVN
T2 sequence (O35002 24-480 S309A): as the sequence (O35002 24-480 R168A) above, with A145R, S286A counted along it
T4 sequence (O35002 24-480 R168F): as the sequence (O35002 24-480 R168A) above, with A145F counted along it

Ala-Pro-Ala
degradation by CtpB (in words) (CtpB; 0.3 μM wild-type CtpB, in vitro translated 35S-methionine-labeled 4FAproc constructs): rapidly degraded | efficiency in stimulating protease function (CtpB; 4FAproc constructs applied at decreasing concentrations, 0.3 μM CtpB): less efficient in stimulating protease function than the Ala-Tyr-Val motif, especially at lower concentrations

FMLLRRKAYA
pKd [1]: 5.64 | pKd (full-length CtpB (S309A)): 5.19 | pKd (CtpB R168A): 4.68 | pKd (CtpB R168F): 4.40

FMLLRRKAYV
pKd [1]: 6.05

H-EMDKPQTAAVPA-OH [oligopeptide having a Val-Pro-Ala C terminus, cocrystallized with S309A]
conformation of S309A cocrystallized with peptide (CtpB S309A mutant): active conformation | conformation of S309A cocrystallized with peptide (CtpB S309A mutant; listed as oligopeptide having a Val-Pro-Ala C terminus): peptide binding itself is sufficient to transform the resting protease into the active conformation

H-NLVLAGLHSYA-OH
binding to PDZ domain in peptide spot analysis (PDZ domain of CtpB): identified PDZ binder

From PMC3808539, “CtpB Assembles a Gated Protease Tunnel Regulating Cell-Cell Signaling during Spore Formation in Bacillus subtilis” (Cell, 2013)
